Laboratory results as given in patent US20210087163A1, “PHENOXY THIOPHENE SULFONAMIDES AND OTHER COMPOUNDS FOR USE AS INHIBITORS OF BACTERIAL GLUCURONIDASE” (NORTH CAROLINA CENTRAL UNIVERSITY, priority 2010, published 2021).
Entries after “also recorded” stand apart in the source; their conditions may differ. Like-named read-outs stand apart in the source and are kept apart here.

Tests used:
E. coli β-glucuronidase = E. coli β-glucuronidase (Escherichia coli, UniProt P05804); assay: biochemical
Sequence of E. coli β-glucuronidase (P05804 whole entry): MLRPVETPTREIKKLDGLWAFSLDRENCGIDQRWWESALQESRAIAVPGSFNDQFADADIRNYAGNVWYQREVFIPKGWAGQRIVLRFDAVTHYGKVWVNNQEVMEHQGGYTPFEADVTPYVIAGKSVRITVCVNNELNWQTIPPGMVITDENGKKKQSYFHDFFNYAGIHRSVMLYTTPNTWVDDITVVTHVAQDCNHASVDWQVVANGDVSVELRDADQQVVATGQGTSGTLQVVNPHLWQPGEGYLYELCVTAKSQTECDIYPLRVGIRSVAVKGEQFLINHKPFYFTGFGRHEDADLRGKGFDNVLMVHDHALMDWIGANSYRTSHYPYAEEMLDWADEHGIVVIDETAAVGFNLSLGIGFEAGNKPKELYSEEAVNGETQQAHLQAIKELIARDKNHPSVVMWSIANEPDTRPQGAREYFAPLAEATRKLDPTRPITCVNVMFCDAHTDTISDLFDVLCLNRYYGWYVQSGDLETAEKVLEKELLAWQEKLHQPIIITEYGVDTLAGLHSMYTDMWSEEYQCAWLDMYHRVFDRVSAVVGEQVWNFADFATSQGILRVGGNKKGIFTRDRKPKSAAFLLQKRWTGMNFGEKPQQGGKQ

E. coli GUS = E. coli GUS (Escherichia coli, UniProt P05804); assay: GUS enzyme assay, manual version (purified E. coli GUS, 4MUG); format: biochemical
Sequence of E. coli GUS (P05804 whole entry): as above
Description: The semi-automated GUS high throughput enzyme assay was performed as previously described and was used to screen the Prestwick Chemical Collection. The follow-up studies were performed manually in a similar manner with the exception of plate type and volumes, as briefly outlined here. Compound stock solutions were made in 100% DMSO. […] Final concentrations in the assembled assay were 50 mM HEPES. pH 7.4, 0.01% Triton X-100, 1% DMSO. […] The enzyme reaction was allowed to proceed for 20 minutes at 23° C., and was terminated by the addition of 40 μl of a 1M sodium carbonate solution. […] Fluorescence data, expressed in relative fluorescence units (RFU), were normalized to DMSO (100% activity) and “no enzyme” (0% activity) controls as maximum and minimum responses, respectively. The Bovine taurus GUS enzyme assay was performed in an identical manner except Bovine taurus GUS enzyme (1 nM) was used instead of bacterial GUS. The IC50 values and Hill slopes were calculated from concentration response data using GraphPad Prism software (GraphPad Software Inc., La Jolla, Calif.) employing either four-parameter or a three parameter (fixed bottom) curve fit.

[1] = target: T1, mammalian GUS purified from Bovine taurus liver (Bos taurus, UniProt A3KMY8); assay: Bovine taurus GUS enzyme assay; format: biochemical
T1 sequence (A3KMY8 1-652): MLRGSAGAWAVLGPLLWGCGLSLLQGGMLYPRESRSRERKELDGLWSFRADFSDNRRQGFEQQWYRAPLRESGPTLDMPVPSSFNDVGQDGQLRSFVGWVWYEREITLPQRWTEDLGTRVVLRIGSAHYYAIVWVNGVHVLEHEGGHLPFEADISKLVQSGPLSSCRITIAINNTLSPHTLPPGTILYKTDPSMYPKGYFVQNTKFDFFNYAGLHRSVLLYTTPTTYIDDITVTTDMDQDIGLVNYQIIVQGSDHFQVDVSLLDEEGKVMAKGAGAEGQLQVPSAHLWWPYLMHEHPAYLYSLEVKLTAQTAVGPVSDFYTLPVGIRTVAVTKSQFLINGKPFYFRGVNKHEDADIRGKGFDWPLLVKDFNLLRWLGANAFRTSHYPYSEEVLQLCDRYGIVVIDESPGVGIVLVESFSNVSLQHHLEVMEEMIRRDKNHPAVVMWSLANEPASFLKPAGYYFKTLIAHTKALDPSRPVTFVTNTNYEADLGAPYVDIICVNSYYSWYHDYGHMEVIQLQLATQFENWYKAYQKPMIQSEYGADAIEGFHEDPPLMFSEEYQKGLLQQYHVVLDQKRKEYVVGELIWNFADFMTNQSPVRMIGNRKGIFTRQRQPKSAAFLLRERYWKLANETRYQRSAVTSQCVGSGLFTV

[2] = target: endogenous GUS activity in whole E. coli cells (Escherichia coli, UniProt P05804); assay: GUS cell based assay (whole E. coli cells, 4MUG); settings: for potency shift, less potent in the cell-based assay compared to the enzyme assay: less potent in cells
Sequence of endogenous GUS activity in whole E. coli cells (P05804 whole entry): as the sequence (P05804 whole entry) above
Description: An E. coli cell based assay was developed in order to assess the activity of these drugs against whole cells, instead of purified enzyme. We took advantage of the well-known specificity and sensitivity of the 4MUG substrate to detect GUS activity in E. coli cells. This assay mimicked the enzyme assay in format, with the GUS enzyme replaced by live log-phase E. coli cells and the assay incubated for a longer time (2 hr) to detect GUS activity in these un-modified cells.
Cultures of E col (DH5α) carrying the empty expression vector pCMV5 were grown over night in LB containing carbenicilin (50 μM) and then used to initiate fresh LB/carbenicillin cultures adjusted to an initial OD of 0.1. These cultures were allowed to reach an OD of 0.6 and then washed twice with 50 mM HEPES, pH 7.4 containing carbenicillin 50 μM, and concentrated by centrifugation to an OD of 1 for use in the assay. The GUS cell based assay was performed in an identical manner as the enzyme assay except the Triton X-100 was left out of the assay buffer, the E. coli cells replaced the enzyme and the reaction was allowed to proceed for 2 hrs at 37° C. The resulting data was analyzed as outlined for the enzyme assay.

E. coli cells = assay: microbe, parasite or virus in culture; settings: Escherichia coli, 2 h
monoamine oxidase = settings: read-out: reported in vitro IC50 for inhibiting monoamine oxidase; rat brain homogenates; cited from earlier work
MAO = settings: read-out: reported IC50 for MAO; depending on subclass of MAO-A or MAO-B, or total activity; cited from earlier work
[3] = running text, read-out: IC50 in the E. coli cell-based assay
[4] = running text, read-out: average IC50 in the E. coli GUS enzyme assay

CC1(C)Cc2cccc(Oc3ccc(S(=O)(=O)NCc4cccc5ccccc45)s3)c2O1 [BRITE-354502]
IC50 (E. coli β-glucuronidase; read-out: IC50, β-Glucuronidase Inhibitory activity of phenoxythiophene sulfonamides): 965 µM

Cc1cc(C(=O)NNCc2ccccc2)no1 [Isocarboxazid, isocarboxazid]
IC50 (E. coli GUS; average of at least three determinations, read-out: E. coli GUS Enzyme Assay IC50 ± SD): 0.128 ± 0.056 µM | activity against purified mammalian GUS, in words [1]: no significant activity; also recorded: do not inhibit | IC50 [2, 3]: 0.336 ± 0.12 µM

NC[C@H]1O[C@H](O[C@H]2[C@H](O)[C@@H](O[C@H]3O[C@H](CO)[C@@H](O)[C@H](N)[C@H]3O)[C@H](N)C[C@@H]2N)[C@H](O)[C@@H](O)[C@@H]1O [Kanamycin]
inhibition at 50 µg/mL (E. coli cells; read-out: reduction of activity in the viability assay): > 90%

OC(c1cc(C(F)(F)F)nc2c(C(F)(F)F)cccc12)C1CCCCN1 (stereo not drawn) [Mefloquine, mefloquine]
IC50 (E. coli GUS; listed as mefloquine hydrochloride, read-out: average IC50 in the E. coli GUS enzyme assay): 1.21 µM | potency shift, less potent in the cell-based assay compared to the enzyme assay [2]: over 4.9 fold | potency shift, less potent in the cell-based assay compared to the enzyme assay ([2]; listed as mefloquine): 5 fold | IC50 ([2]; read-out: IC50 in the E. coli cell-based assay): 6 µM | viability at 10 µM (E. coli cells; read-out: viability of E. coli): 100%

O=C(CCNNC(=O)c1ccncc1)NCc1ccccc1 [Nialamide, nialamide]
IC50 (E. coli GUS; [4]): 0.071 µM | activity against purified mammalian GUS, in words [1]: no significant activity; also recorded: do not inhibit | IC50 ([1]; average of at least three determinations, read-out: B. taurus GUS Enzyme Assay IC50 ± SD): 74.8 µM | IC50 ([1]; running text, read-out: IC50 against purified mammalian GUS): ~75 µM | potency shift, more potent in the cell-based assay compared to the E. coli GUS enzyme assay ([2]; more potent in cells): 4 fold | IC50 [2, 3]: 0.017 µM | IC50 (monoamine oxidase): 2.6 to 13 µM

NNCCc1ccccc1 [Phenelzine, phenelzine]
inhibition in the Prestwick collection screen (E. coli β-glucuronidase; 10 µM): > 50% | inhibition at 10 µM (E. coli β-glucuronidase; read-out: inhibition in the Prestwick collection screen): 62% | IC50 (E. coli GUS; running text, listed as phenelzine, read-out: average IC50 in the E. coli GUS enzyme assay): 2.28 µM | IC50 (E. coli GUS; [4]): 2.2 µM | IC50 ([2]; average of at least three determinations, 2 hrs at 37° C., read-out: E. coli Cell-Based Assay IC50 ± SD): 7.12 µM | potency shift, less potent in the cell-based assay compared to the enzyme assay [2]: 2.6 fold | IC50 (MAO): 0.07 to 0.9 µM
